Test results taken from article PMC9221290, “Alkaloids of Dicranostigma franchetianum (Papaveraceae) and Berberine Derivatives as a New Class of Antimycobacterial Agents” (Biomolecules, 2022).
Where two headings read alike, the source gives them in different places.

How the values were obtained:
[1] = tested on: Mtb H37Ra ITM-M006710 (ATCC 9431); experiment: Antimycobacterial microdilution broth assay (resazurin), Mtb H37Ra; type: cell-based, Mycobacterium tuberculosis; conditions: Mycobacterium tuberculosis
[2] = tested on: Mycolicibacterium aurum DSM 43999 (ATCC 23366); experiment: Antimycobacterial microdilution broth assay (resazurin), M. aurum; type: cell-based; conditions: Mycolicibacterium aurum, 72 h, read-out: MIC M. aurum, microdilution broth, resazurin, 72 h
[3] = tested on: Mycobacterium avium DSM 44156 (ATCC 25291); experiment: Antimycobacterial microdilution broth assay (resazurin), M. avium; type: cell-based; conditions: Mycobacterium avium, 96 h, read-out: MIC M. avium, microdilution broth, resazurin, 96 h
[4] = tested on: Mycobacterium kansasii DSM 44162 (ATCC 12478); experiment: Antimycobacterial microdilution broth assay (resazurin), M. kansasii; type: cell-based; conditions: Mycobacterium kansasii, 96 h, read-out: MIC M. kansasii, microdilution broth, resazurin, 96 h
[5] = tested on: Mycolicibacterium smegmatis DSM 43465 (ATCC 607); experiment: Antimycobacterial microdilution broth assay (resazurin), M. smegmatis; type: cell-based; conditions: Mycolicibacterium smegmatis, 48 h, read-out: MIC M. smegmatis, microdilution broth, resazurin, 48 h
HepG2 cells [6] = tested on: HepG2 cells
HepG2 cells [7] = experiment: cells; conditions: Homo sapiens, HepG2, 24 h
in vitro = conditions: human, % of cell viability compared to control; for viability at 1 µM: HepG2, 1 µM; for viability at 5 µM: HepG2, 5 µM; for viability at 10 µM: HepG2, 10 µM; for viability at 25 µM: HepG2, 25 µM; for viability at 50 µM: HepG2, 50 µM; for viability at 75 µM: HepG2, 75 µM; for viability at 100 µM: HepG2, 100 µM; for viability at 0.1 µM: HepG2, 0.1 µM
[8] = 120 h, microdilution broth, resazurin, 120 h, read-out: MIC Mtb H37Ra
[9] = calculated from MIC (µg/mL) and MW, read-out: MIC Mtb H37Ra
[10] = read-out: HepG2 IC50, 1. measurement, MTT, 24 h, single measurement 1
[11] = read-out: HepG2 IC50, 2. measurement, MTT, 24 h, single measurement 2
[12] = read-out: HepG2 IC50, 3. measurement, MTT, 24 h, single measurement 3
[13] = read-out: HepG2 IC50, MTT, 24 h incubation

Compound: COc1ccc2cc3[n+](cc2c1OCc1ccccc1C)CCc1cc2c(cc1-3)OCO2 [16b, 9-O-(2-methylbenzyl)berberine chloride]
- MIC [1, 8]: 7.81 µg/mL
- MIC [1, 9]: 16.9 µM
- MIC [2]: 7.81 µg/mL
- MIC [3]: 3.91 µg/mL
- MIC [4]: 3.91 µg/mL
- MIC [5]: 1.95 µg/mL
- SI (selectivity index) (HepG2 cells [6]): 2.32
- IC50 (HepG2 cells [7]; [10]): 36 µM
- IC50 (HepG2 cells [7]; [11]): 38.6 µM
- IC50 (HepG2 cells [7]; [12]): 43.2 µM
- IC50 (HepG2 cells [7]; [13]): 39.3 ± 3.62 µM
- viability at 1 µM (in vitro; 1. measurement): 96%
- viability at 5 µM (in vitro; 1. measurement): 83.6%
- viability at 10 µM (in vitro; 1. measurement): 73%
- viability at 25 µM (in vitro; 1. measurement): 48.6%
- viability at 50 µM (in vitro; 1. measurement): 41.5%
- viability at 75 µM (in vitro; 1. measurement): 39.3%
- viability at 100 µM (in vitro; 1. measurement): 37.5%
- viability at 1 µM (in vitro; 2. measurement): 97.8%
- viability at 5 µM (in vitro; 2. measurement): 87.1%
- viability at 10 µM (in vitro; 2. measurement): 76.6%
- viability at 25 µM (in vitro; 2. measurement): 51.6%
- viability at 50 µM (in vitro; 2. measurement): 42.5%
- viability at 75 µM (in vitro; 2. measurement): 41.1%
- viability at 100 µM (in vitro; 2. measurement): 33.8%
- viability at 0.1 µM (in vitro; 3. measurement): 99.5%
- viability at 1 µM (in vitro; 3. measurement): 99.4%
- viability at 5 µM (in vitro; 3. measurement): 88.8%
- viability at 10 µM (in vitro; 3. measurement): 76.5%
- viability at 25 µM (in vitro; 3. measurement): 51.6%
- viability at 50 µM (in vitro; 3. measurement): 44.9%
- viability at 75 µM (in vitro; 3. measurement): 42.6%
- viability at 100 µM (in vitro; 3. measurement): 38.5%

Compound: COc1ccc2cc3[n+](cc2c1OCc1cccc(C)c1)CCc1cc2c(cc1-3)OCO2 [16c, 9-O-(3-methylbenzyl)berberine chloride]
- MIC [1, 8]: 6.25 µg/mL
- MIC [1, 9]: 13.5 µM
- MIC [2]: 3.12 µg/mL
- MIC [3]: 6.25 µg/mL
- MIC [4]: 6.25 µg/mL
- MIC [5]: 1.56 µg/mL
- SI (selectivity index) (HepG2 cells [6]): 3.49
- IC50 (HepG2 cells [7]; [10]): 55.6 µM
- IC50 (HepG2 cells [7]; [11]): 43.4 µM
- IC50 (HepG2 cells [7]; [12]): 42.3 µM
- IC50 (HepG2 cells [7]; [13]): 47.1 ± 7.38 µM
- viability at 1 µM (in vitro; 1. measurement): 87.2%
- viability at 5 µM (in vitro; 1. measurement): 88.3%
- viability at 10 µM (in vitro; 1. measurement): 74%
- viability at 20 µM (in vitro; 1. measurement, HepG2, 20 µM): 58.4%
- viability at 40 µM (in vitro; 1. measurement, HepG2, 40 µM): 54.5%
- viability at 60 µM (in vitro; 1. measurement, HepG2, 60 µM): 53.3%
- viability at 80 µM (in vitro; 1. measurement, HepG2, 80 µM): 49.5%
- viability at 100 µM (in vitro; 1. measurement): 35.1%
- viability at 1 µM (in vitro; 2. measurement): 88.3%
- viability at 5 µM (in vitro; 2. measurement): 78.7%
- viability at 10 µM (in vitro; 2. measurement): 68.3%
- viability at 25 µM (in vitro; 2. measurement): 52.9%
- viability at 50 µM (in vitro; 2. measurement): 47.9%
- viability at 75 µM (in vitro; 2. measurement): 45.7%
- viability at 100 µM (in vitro; 2. measurement): 39%
- viability at 0.1 µM (in vitro; 3. measurement): 102%
- viability at 1 µM (in vitro; 3. measurement): 99.8%
- viability at 5 µM (in vitro; 3. measurement): 78.9%
- viability at 10 µM (in vitro; 3. measurement): 64.9%
- viability at 25 µM (in vitro; 3. measurement): 48.6%
- viability at 50 µM (in vitro; 3. measurement): 47.3%
- viability at 75 µM (in vitro; 3. measurement): 46.1%
- viability at 100 µM (in vitro; 3. measurement): 42.5%

Compound: COc1ccc2cc3[n+](cc2c1OCc1ccc(C)cc1)CCc1cc2c(cc1-3)OCO2 [16d, 9-O-(4-methylbenzyl)berberine chloride]
- MIC ([1]; 120 h, read-out: MIC Mtb H37Ra, microdilution broth, resazurin, 120 h): 3.91 µg/mL
- MIC ([1]; read-out: MIC Mtb H37Ra (µM), calculated from MIC (µg/mL) and MW): 8.46 µM
- MIC [2]: 6.25 µg/mL
- MIC [3]: 1.98 µg/mL
- MIC [4]: 3.91 µg/mL
- MIC [5]: 1.56 µg/mL
- SI (selectivity index) (HepG2 cells [6]): 2.54
- IC50 (HepG2 cells [7]; [10]): 19.3 µM
- IC50 (HepG2 cells [7]; [11]): 16 µM
- IC50 (HepG2 cells [7]; [12]): 12.3 µM
- IC50 (HepG2 cells [7]; [13]): 15.9 ± 3.48 µM
- viability at 1 µM (in vitro; 1. measurement): 96.1%
- viability at 5 µM (in vitro; 1. measurement): 70%
- viability at 10 µM (in vitro; 1. measurement): 55.6%
- viability at 25 µM (in vitro; 1. measurement): 48%
- viability at 50 µM (in vitro; 1. measurement): 43.7%
- viability at 75 µM (in vitro; 1. measurement): 32.6%
- viability at 100 µM (in vitro; 1. measurement): 7.68%
- viability at 0.1 µM (in vitro; 2. measurement): 93.3%
- viability at 1 µM (in vitro; 2. measurement): 92.6%
- viability at 5 µM (in vitro; 2. measurement): 64.6%
- viability at 10 µM (in vitro; 2. measurement): 48%
- viability at 25 µM (in vitro; 2. measurement): 45%
- viability at 50 µM (in vitro; 2. measurement): 41.4%
- viability at 75 µM (in vitro; 2. measurement): 34%
- viability at 100 µM (in vitro; 2. measurement): 15.7%
- viability at 0.1 µM (in vitro; 3. measurement): 79.8%
- viability at 1 µM (in vitro; 3. measurement): 76.5%
- viability at 5 µM (in vitro; 3. measurement): 68.2%
- viability at 10 µM (in vitro; 3. measurement): 52%
- viability at 25 µM (in vitro; 3. measurement): 47.6%
- viability at 50 µM (in vitro; 3. measurement): 45.2%
- viability at 75 µM (in vitro; 3. measurement): 18.3%
- viability at 100 µM (in vitro; 3. measurement): 11.4%

Compound: COc1ccc2cc3[n+](cc2c1OCc1cccc(Br)c1)CCc1cc2c(cc1-3)OCO2 [16f, 9-O-(3-brombenzyl)berberine chloride]
- MIC [1, 8]: 3.12 µg/mL
- MIC [1, 9]: 5.93 µM
- MIC [2]: 1.56 µg/mL
- MIC [3]: 3.12 µg/mL
- MIC [4]: 3.12 µg/mL
- MIC [5]: 0.78 µg/mL
- SI (selectivity index) (HepG2 cells [6]): 2.34
- IC50 (HepG2 cells [7]; [10]): 14.1 µM
- IC50 (HepG2 cells [7]; [11]): 17 µM
- IC50 (HepG2 cells [7]; [12]): 10.5 µM
- IC50 (HepG2 cells [7]; [13]): 13.9 ± 3.25 µM
- viability at 1 µM (in vitro; 1. measurement): 95.5%
- viability at 5 µM (in vitro; 1. measurement): 69.4%
- viability at 10 µM (in vitro; 1. measurement): 54.8%
- viability at 25 µM (in vitro; 1. measurement): 48.3%
- viability at 50 µM (in vitro; 1. measurement): 39.3%
- viability at 75 µM (in vitro; 1. measurement): 28%
- viability at 100 µM (in vitro; 1. measurement): 12.3%
- viability at 1 µM (in vitro; 2. measurement): 104%
- viability at 5 µM (in vitro; 2. measurement): 76.8%
- viability at 10 µM (in vitro; 2. measurement): 56.1%
- viability at 25 µM (in vitro; 2. measurement): 52.7%
- viability at 50 µM (in vitro; 2. measurement): 32.8%
- viability at 75 µM (in vitro; 2. measurement): 2.26%
- viability at 100 µM (in vitro; 2. measurement): 0.77%
- viability at 1 µM (in vitro; 3. measurement): 90.5%
- viability at 5 µM (in vitro; 3. measurement): 62.6%
- viability at 10 µM (in vitro; 3. measurement): 49.4%
- viability at 25 µM (in vitro; 3. measurement): 43.7%
- viability at 50 µM (in vitro; 3. measurement): 23.7%
- viability at 75 µM (in vitro; 3. measurement): 2.27%
- viability at 100 µM (in vitro; 3. measurement): 1.1%
